Data reported in patent US12606571B2, “Macrocyclic compounds and uses thereof” (TURNING POINT THERAPEUTICS, INC., priority 2017, dated 2026).
Like-named read-outs stand apart in the source and are kept apart here.

Legend:
MKN-45 tumors = experiment: MKN-45 gastric adenocarcinoma xenograft model; type: in vivo, mouse
Description: MKN-45 and Ba/F3 ETV6-CSF1R cells were cultured using standard techniques in RPMI-1640 medium (Corning, Inc) with 10% fetal bovine serum (Thermo Fisher Scientific, Inc) at 37° C. in a humidified atmosphere with 5% CO2. For implantation, cells were harvested and pelleted by centrifugation at 250 g for 2 minutes. Cells were washed once and resuspended in serum-free medium supplemented with 50% matrigel (v/v).
Female athymic nude mice (5-8 weeks of age) were obtained from Charles River Laboratory and were housed in Innovive IVC disposable cages on HEPA filtered ventilated racks with ad libitum access to rodent chow and water. Five million cells in 100 μL serum-free medium supplemented with 50% matrigel (Corning, Inc) were implanted subcutaneously in the right flank region of the mouse. Tumor size and body weight were measured on designated days. Tumor size was measured with an electronic caliper and tumor volume was calculated as the product of length*width^2*0.5.
The Met gene amplification in MKN-45 cells underlies the molecular mechanism for tumor growth. Athymic nude mice bearing MKN-45 tumors (at the average tumor size of 210 mm^3) were dosed with Compound 5 orally BID for twelve days (FIG. 7). The control group of mice were given vehicle only. Tumor volume (TMV) was measured by caliper on the indicated days and is shown at mean±sem in FIG. 7. […] Tumor growth inhibition (TGI) was calculated as 100%*{1−[(TMVTreated Last Day of Treatment−TMVTreated First Day of Treatment)/(TMVControl on Last Day of Treatment−TMVControl on First Day of Treatment)]} when TMVTreated Last Day of Treatment≥TMVTreated First Day of Treatment. In the case of TMVTreated Last Day of Treatment<TMVTreated First Day of Treatment., tumor regression (REG) was calculated as 100%*(1−TMVTreated Last Day of Treatment/TMVTreated First Day of Treatment). […] Tumor size was reduced in 5 out 10 mice treated with Compound 5 at 10 mg/kg, BID and in 9 out of 10 mice treated with Compound 5 at 30 mg/kg.

[1] = tested on: tumor associated immune cells in MC38 tumors; experiment: MC38 syngeneic model PD biomarker study (FACS of tumor associated immune cells)
Description: MC38 tumors were collected on day 7 and day 11. The collected tumors were dissociated using MiltenyiGentleMax. FACS analysis of tumors were performed for the tumor associated immune cells including tumor associated macrophages (TAM) and TAM subtypes (M1 and M2), myeloid derived suppression cells (MDSC), cytotoxic T lymphocytes (CTL, i.e. CD8+ T cells), CD4+ T cells, and regulatory T cells (Treg).
FACS analysis of tumors were performed on day 7 and day 11 for the tumor associated immune cells including tumor associated macrophages (TAM) and TAM subtypes (MI and M2), myeloid derived suppression cells (MDSC), cytotoxic T lymphocytes (CTL, i.e. CD8+ T cells), CD4+ T cells, and regulatory T cells (Treg).

[2] = tested on: MET phosphorylation and downstream signaling in SNU-5 cells; experiment: Immunoblotting for cellular kinase phosphorylation, SNU-5; type: cell-based, human; conditions: 4 hour incubation
Description: Half a million cells per well were seeded in 24 well plate for 24 hrs, and then treated with compounds for 4 hours. Cells were collected after treatment and lysed in RIPA buffer (50 mM Tris, pH 7.4, 150 mM NaCl, 1% NP-40, 0.5% Deoxycholate, 0.1% SDS) supplemented with 10 mM EDTA, 1× Halt protease and phosphatase inhibitors (Thermo Scientific). […] Membranes were incubated with chemiluminescent substrate for 5 min at room temperature (SuperSignal West Femto, Thermo Scientific). The chemiluminescent images were acquired with a C-DiGit Imaging System (LI-COR Biosciences). The relative density of the chemiluminescent bands were quantified via Image Studio Digits from LICOR. The half inhibitory concentration (IC50) value is calculated using non-linear regression analysis through GraphPad Prism software (GraphPad, Inc., San Diego, CA).

HCC827 cells [3] = experiment: Apoptosis of HCC827 cells; type: cell-based, human; conditions: 48 hour incubation, combination with AZD9291
M-NFS-60 cells = experiment: M-NFS-60 cell proliferation at varied CSF-1; type: cell-based; conditions: Mus musculus
Description: Two thousand cells per well were seeded in 384 well white plate for 24 hrs, and then treated with compounds for 72 hours (37° C., 5% CO2). Cell proliferation was measured using CellTiter-Glo luciferase-based ATP detection assay (Promega) following the manufacturer's protocol. IC50 determinations were performed using GraphPad Prism software (GraphPad, Inc., San Diego, CA).
The anti-cell proliferation activities against MET and CSF1R driven cell lines were conducted with MKN-45, SNU-5, Ba/F3 TEL-CSF1R cells, and M-NFS-60 respectively.

HCC827 cells [4] = experiment: Scratch wound healing assay, HCC827; type: cell-based, human; conditions: 36-48 hours treatment
Description: MKN-45 or HCC827 cells were seeded in 24-well plate. After 12-24 hours, confluent cell monolayers were gently scraped with a sterile pipette tip to form a scratch. The plates were washed with fresh medium, and the cells were incubated with medium alone or medium containing various concentration of compounds. After 36-48 hours, the plates were examined and recorded by an EVOS FL microscopy (Life Technology) to monitor rescaling of the cell monolayer.

MC38 syngeneic tumors = experiment: Subcutaneous MC38 syngeneic mouse tumor model, tumor volume and body weight; type: in vivo
Description: C57BL/6J female mice (6 weeks) were purchased from the Jackson Laboratory, and maintained in accordance with the guidelines for the care and use of laboratory animals. Half million MC38 cancer cells in 100 μL serum-free medium were implanted subcutaneously in the right flank region of the mouse. Tumor size and body weight were measured on designated days. Tumor size was measured with an electronic caliper and tumor volume was calculated as the product of length*width^2*0.5. […] Vehicle control, Compound 5, PD-1 antibody or Compound 5 plus PD-1 antibody were administered orally (BID) at determined doses.
Anti-tumor effects of Compound 5 on MC38 syngeneic tumors was analyzed by tumor volume. The average tumor volume of vehicle control group (G1) on day 7 was 696.3±299.7, while Compound 5 treated group (G2) was 473.5±170.4 mm^3. On day 11, the average tumor volume of G1 and G2 were 1142.6±290.0 and 610.4±151.8mm^3, respectively.

## CCN1Cc2c(ccc(F)c2C#N)O[C@@H](C)CNC(=O)c2c(N)nn3ccc1nc23 [Compound 5, (7S)-3-amino-14-ethyl-11-fluoro-7-methyl-4-oxo-4,5,6,7,13,14-hexahydro-1,15-ethenopyrazolo[4,3-f][1,4,8,10]benzoxatriazacyclotridecine-12-carbonitrile]
MKN-45 tumors; 3 mg/kg, BID, oral, twelve days
  tumor growth inhibition (TGI): 47%
MKN-45 tumors; 10 mg/kg, BID, oral, twelve days
  tumor regression (REG): 6%
MKN-45 tumors; 30 mg/kg
  mice with reduced tumor size: 9 out of 10
MKN-45 tumors; 30 mg/kg, BID, oral, twelve days
  tumor regression (REG): 44%
MKN-45 tumors; treated groups 3, 10, 30 mg/kg BID, p<0.05
  mean tumor volume (TMV) compared to control group: significantly lower
[1]; day 7
  TAM cells vs control: trend for a reduction
  populations of TAM, M1, M2, MDSC, CTL, CD4+ T cells, Treg in CD45+ tumor leukocytes vs control: no statistically significant changes
[1]; day 11
  CD4+ T cells or Treg cells vs control: no statistically significant change
  CTL cells in the total tumor leukocyte population vs control: trend of increase
  CTL in the CD3+ lymphocyte population vs control: statistically significant increase
  M1 TAM in the total tumor leukocyte population vs control: increase
  M2 TAM in the total tumor leukocyte population vs control: decrease
  MDSC populations vs control: concurrent increase
  TAM in the total tumor leukocyte population vs control: statistically significant decrease
[2]
  MET phosphorylation (gel): inhibited
HCC827 cells [3]
  apoptosis of HCC827 cells: synergized with AZD9291
M-NFS-60 cells; read-out: M-NFS-60 IC50, CSF-1 0 ng/mL
  IC50: 0.3 nM
M-NFS-60 cells; read-out: M-NFS-60 IC50, CSF-1 0.3 ng/mL
  IC50: 3 nM
M-NFS-60 cells; read-out: M-NFS-60 IC50, CSF-1 1 ng/mL
  IC50: 11.6 nM
M-NFS-60 cells; read-out: M-NFS-60 IC50, CSF-1 3 ng/mL
  IC50: 78.2 nM
M-NFS-60 cells; read-out: M-NFS-60 IC50, CSF-1 10 ng/mL
  IC50: 84.1 nM
M-NFS-60 cells; read-out: M-NFS-60 IC50, CSF-1 30 ng/mL
  IC50: 181 nM
M-NFS-60 cells; read-out: M-NFS-60 IC50, CSF-1 100 ng/mL
  IC50: 174 nM
HCC827 cells [4]
  cell migration of HCC827 cells, wound healing: inhibited
MC38 syngeneic tumors; 15 mg/kg BID for 7 or 11 days
  body weight and overt abnormality: No body weight loss and overt abnormality
MC38 syngeneic tumors; day 7, 15 mg/kg BID
  average tumor volume: 473.5±170.4 mm^3
MC38 syngeneic tumors; day 11, 15 mg/kg BID
  average tumor volume: 610.4±151.8 mm^3
